Experiments:
[1] = system: tobacco leaves; conditions: peptides described in prior applications; cited from earlier work
[2] = Confirmation of soluble protein in bacterial cell lysates; type: physicochemical; conditions: B. subtilis lysate, Bugbuster plus lysozyme, 20,000 g for 10 minutes at 4° C.
Protocol: Fluorescent colonies from Example 3 were inoculated into 5 ml cultures of LB medium supplemented with 10 ug/ml Kanamycin and grown for 2 days with 170 rpm shaking at 37° C. Cells were harvested by centrifugation (5000 g for 15 minutes at 4° C.). The culture was decanted away from the cell pellet. The cell pellets were resuspended in 1 ml each of Bugbuster Protein Extraction Reagent (EMD Millipore, Billerica, MA, USA) supplemented with 200 ug/ml of lysozyme. Lysis was allowed to proceed for 20 minutes at room temperature (20° C.). The lysates were centrifuged at 20,000 g for 10 minutes at 4° C. to separate soluble from insoluble proteins.

[3] = system: tobacco leaves; assay: Hypersensitive response test of purified Fresno-p5-21 infused into tobacco leaves; type: in vivo; conditions: after 2 days
Protocol: The production and purification procedure of Examples 4 and 5 were scaled up to 1 L to produce a quantity of protein appropriate for hypersensitive response elicitation in tobacco leaves.
Briefly, 1 L of LB culture media was supplemented with 10 ug/ml Kanamycin and cells were grown as in Example 3 for 2 days in a baffled flask. Cells were harvested at 6000 g for 20 minutes at 4° C. Culture supernatant was removed from the cells and the cells were resuspended in 20 ml of Bugbuster Protein Extraction Reagent supplemented with 50 ug/ml lysozyme. The sample was gently rocked at room temperature for 30 minutes and then frozen on liquid nitrogen and stored at −80° C.
The sample was thawed on ice and a 1/50 volume of 500 mM imidazole was added for a final concentration of 10 mM imidazole. 8 ml of the sample was mixed with 2 ml of settled Ni-NTA agarose resin (5-Prime) end-over-end for 2 hours at 4° C. The column was then settled for 20 minutes and allowed to flow by gravity. The flowthrough was collected. The resin was washed with 5 column volumes of 50 mM sodium phosphate, 15 mM imidazole, 200 mM NaCl. Finally, the protein was eluted with 250 mM imidazole, pH 7.5. […] The protein concentration was quantified by UV/Vis spectroscopy using a Nanodrop 2000 (Thermo Fisher Scientific, Waltham, MA, USA). […]

**Q.** With SAGSEQQLDQLLLMFIMMMLQQ [P5a] as the molecule, how does the “induction of a hypersensitive response” value [1] read?
**A.** Its value is “capable of inducing a hypersensitive response”.

**Q.** With SAGSEQQLDLLLMFIMMMLQQ [P5] as the molecule, how does the “induction of a hypersensitive response” value [1] read?
**A.** The value was “capable of inducing a hypersensitive response”.

**Q.** For SEEQLELLLAFIAAALQQEE [P5-21], which “induction of a hypersensitive response” value [1] is on record?
**A.** The value was “capable of inducing a hypersensitive response”.

**Q.** Which “induction of a hypersensitive response” value [1] does the source give for “SEEEEQLDOLLLAFIAAALQQ (SEEEEQLDQLLLAFIAAALQQ; P5-25)” here?
**A.** The value was “does not”.

B1: Fresno-P5-21: Red fluorescent protein Fresno fused at C-terminus to harpin peptide P5-21 and 6×His tag, SEQ ID NO: 13 (protein)
chain: MNSLIKENMHMKLYMEGTVNNHHFKCTSEGEGKPYEGTQTMRIKVVEGGPLPFAFDILATSFMYGSRTFIKYPKGIPDFFKQSFPEGFTWERVTRYEDGGVVTATQDTSLEDGCLVYHVQVRGVNFPSNGPVMQKKTLGWEPNTEMLYPADGGLEGRSDMALKLVGGGHLSCSFVTTYRSKKTVGNIKMPGIHAVDHRLVRIKEADKETYVEQHEVAVAKFAGLGGGMDELYKSEEQLELLLAFIAAALQQEESRHHHHHH
**Q.** Which “solubility of recombinant protein (colour of lysate supernatant)” value [2] does the source give for B1 here?
**A.** Its value is “soluble”.

**Q.** What about the “hypersensitive response (lesions typical of HR)” value ([3]; 1× concentration (about 100 ug/ml protein)) of the same molecule?
**A.** Its value is “caused lesions”.

**Q.** What about the “hypersensitive response (lesions typical of HR)” value ([3]; 2× dilution) of the same molecule?
**A.** Its value is “caused lesions”.
